Test results reported in US20230174484A1, “ANTAGONISTS OF GPR39 PROTEIN” (Oregon Health & Science University, priority 2020, published 2023).
pKi: −log10 of the molar value.

target: T1, human GPR39 receptor (Homo sapiens, UniProt O43194); test: Measurement of intracellular calcium response in PC3 cells (FLIPR), antagonism of the C3 agonist response; assay type: cell-based; details: functional pKi (modified Cheng-Prusoff), inhibition of the C3 (TC-G 1008) response at EC90, 30 μM ZnCl2, read-out: fpKi activity
T1 construct: PC3 Cells, Expressing the Endogenous Human GPR39 Receptor; endogenous in cells; host or cells: PC3 (human prostate adenocarcinoma) cells
T1 sequence (O43194 1-453): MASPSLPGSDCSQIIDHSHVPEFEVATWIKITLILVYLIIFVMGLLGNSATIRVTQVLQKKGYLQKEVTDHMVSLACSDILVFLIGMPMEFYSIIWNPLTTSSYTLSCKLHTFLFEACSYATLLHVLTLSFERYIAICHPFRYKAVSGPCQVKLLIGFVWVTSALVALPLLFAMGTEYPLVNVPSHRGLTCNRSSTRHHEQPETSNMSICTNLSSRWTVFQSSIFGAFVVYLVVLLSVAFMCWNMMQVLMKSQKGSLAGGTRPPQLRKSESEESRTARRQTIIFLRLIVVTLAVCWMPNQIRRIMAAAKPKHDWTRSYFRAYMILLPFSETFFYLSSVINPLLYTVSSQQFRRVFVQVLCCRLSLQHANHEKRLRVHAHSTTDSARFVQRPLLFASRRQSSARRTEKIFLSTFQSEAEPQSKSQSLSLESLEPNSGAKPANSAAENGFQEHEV
Protocol: Human prostate adenocarcinoma (PC3) cells endogenously expressing human GPR39 receptor were seeded into black walls clear-base 384-well plates at a density of 7,500 cells per well in DM EM (Low Glucose) supplemented with 10% heat-inactivated foetal bovine serum and 1% of Pen/Strep and grown overnight at 37° C., 5% CO2. After washing with assay buffer (20 mM HEPES, 137 mM NaCI, 5.4 mM KCI, 10 mM glucose, 0.8 mM MgSO4, 1.3 mM CaCl2, 0.3 mM Na2HPO4, 0.4 mM KH2PO4 4.2 mM NaHCO3, pH 7.4), cells were incubated with Calcium-6 probe (Molecular Devices) at 37° C. for 2h and then equilibrated at RT for 30 minutes on metal block. The fluorescence was measured in real time by Fluorometric Imaging Plate Reader (FLIPR TETRA, Molecular Devices) (excitation wavelength at 470-495 nm, emission wavelength at 515-575 nm).
Compounds of invention were serially diluted in neat DMSO at 1000 fold concentrations and plated into 384-well plates and then 200-fold diluted in assay buffer containing 150 uM ZnCl2 (30 μM final concentration) and […].
Fluorescence was monitored throughout the run assay. The peak of Ca2+stimulation (baseline subtracted) was expressed as percentage of the maximal inhibition of the EC90 C3 response and was plotted versus the concentration of test compound. Curve fitting and IC50 estimations are carried out using a four-parameter logistic model using XLfit Software.
The potency of compounds was reported as functional pKi (—Log10Ki) obtained using the modified Cheng-Prusoff relationship (Cheng, Y., Prusoff, W. H. 1973.)
fKi =IC50/(1+[L]/EC50) where IC50 is the concentration of antagonist required for 50% inhibition of the maximum response, [L] is the concentration of the agonist used (EC90) and EC50 is the concentration of agonist need to induced 50% of the maximum response (obtained in each experimental plate).
An fpKi less than 5.2 is reported as “+/±”. An fpKi ranging from 5.2 to 5.9 is reported as “+”. An fpKi from 6.0 to 6.5 is reported as “++”. An fpKi from 6.6 to 7.2 is reported as “+++”. An fpKi equal to or greater than 7.3 is reported as “++++”.

| SMILES | pKi |
| --- | --- |
| O=C(Nc1ccc(C(=O)N2CCn3c(nnc3C(F)(F)F)C2)c(N2CCCCCC2)c1)C1CC1 [Example 41] | 5.20 to 5.90 |
| CN1CCN(C(=O)c2ccc(NC(=O)C3CC3)cc2N2CCCCCC2)C(CO)C1 (centres unmarked) [Example 77, N-[3-(azepan-1-yl)-4-[2-(hydroxymethyl)-4-methylpiperazine-1-carbonyl]phenyl]cyclopropanecarboxamide] | 5.20 to 5.90 |
| O=C(Nc1ccc(C(=O)N2CCOC(C(F)(F)F)C2)c(N2CCCC2)c1)C1CC1 (centres unmarked) [Example 166, N-[3-pyrrolidin-1-yl-4-[2-(trifluoromethyl)morpholine-4-carbonyl]phenyl]cyclopropanecarboxamide] | 5.20 to 5.90 |
| O=C(Nc1ccc(C(=O)N2CCN(c3ccncc3)CC2)c(N2CCCCCC2)c1)C1CC1 [Example 57, N-[3-(azepan-1-yl)-4-(4-pyridin-4-ylpiperazine-1-carbonyl)phenyl]cyclopropanecarboxamide] | 5.20 to 5.90 |
| O=C(Nc1ccc(C(=O)N2CCOCC2c2ccccc2)c(N2CCCC2)c1)C1CC1 (racemic) [Example 167, N-[4-(3-phenylmorpholine-4-carbonyl)-3-pyrrolidin-1-ylphenyl]cyclopropanecarboxamide] | 6.60 to 7.20 |
| CN1CCN(C(=O)c2ccc(NC(=O)C3CC3)cc2N2CCC(C(F)(F)F)C2)C(c2ccccc2)C1 (single isomer, unassigned) [Example 199d, (2S, 3R) or (2R, 3S) or (2R, 3R) or (2S, 3S) N-[4-(4-methyl-2-phenylpiperazine-1-carbonyl)-3-[3-(trifluoromethyl)pyrrolidin-1-yl]phenyl]cyclopropanecarboxamide] | 6.00 to 6.50 |
| CCCN1CCN(C(=O)c2ccc(NC(=O)C3CC3)cc2-n2ccc(C(F)(F)F)n2)CC1 [Example 158, N-[4-(4-propylpiperazine-1-carbonyl)-3-[3-(trifluoromethyl)pyrazol-1-yl]phenyl]cyclopropanecarboxamide] | ≥ 7.30 |
| O=C(Nc1ccc(C(=O)N2CCS(=O)(=O)CC2)c(N2CCCC2)c1)C1CC1 [Example 60, N-[4-(1,1-dioxo-1,4-thiazinane-4-carbonyl)-3-pyrrolidin-1-ylphenyl] Cyclopropanecarboxamide] | 6.60 to 7.20 |
| CN1CCN(C(=O)c2ccc(NC(=O)C3CC3)cc2N2CCCCC2)C(c2ccccc2)C1 (single isomer, unassigned) [Example 201a, N-[4-(4-methyl-(2R or 2S)-phenylpiperazine-1-carbonyl)-3-piperidin-1-ylphenyl]cyclopropanecarboxamide] | 6.60 to 7.20 |
| CCCN1CCN(C(=O)c2ccc(NC(=O)C3CC3)cc2N2CCCCCC2)C(c2ccccc2)C1 (single isomer, unassigned) [Example 73b, N-[3-(azepan-1-yl)-4-(2-phenyl-4-propylpiperazine-1-carbonyl)phenyl]Cyclopropanecarboxamide] | 5.20 to 5.90 |
| CN1CCN(C(=O)c2ccc(NC(=O)C3CC3)cc2N2CC3(COC3)C2)C(c2ccccc2)C1 (centres unmarked) [Example 204, N-[4-(4-methyl-2-phenylpiperazine-1-carbonyl)-3-(2-oxa-6-azaspiro[3.3]heptan-6-yl)phenyl]cyclopropanecarboxamide] | 6.00 to 6.50 |
| Cc1ccn(-c2cc(NC(=O)C3CC3)ccc2C(=O)N2CCN(C)CC2c2ccccc2)n1 (racemic) [Example 155c, N-[4-(4-methyl-2-phenylpiperazine-1-carbonyl)-3-(3-methylpyrazol-1-yl)phenyl]cyclopropanecarboxamide] | 6.00 to 6.50 |
| Cc1cc(C(F)(F)F)nn1-c1cc(NC(=O)C2CC2)ccc1C(=O)N1CCS(=O)(=O)CC1 [Example 178, N-[4-(1,1-dioxo-1,4-thiazinane-4-carbonyl)-3-[5-methyl-3-(trifluoromethyl)pyrazol-1-yl]phenyl]cyclopropanecarboxamide] | 6.60 to 7.20 |
| O=C(Nc1ccc(C(=O)N2CCN(Cc3ccc(F)cc3)CC2)c(N2CCCCCC2)c1)C1CC1 [Example 29, N-(3-(azepan-1-yl)-4-(4-(4-fluorobenzyl)piperazine-1-carbonyl)phenyl) Cyclopropanecarboxamide] | 6.60 to 7.20 |
